Source: US12532884B2, “Fungicidal compositions” (SYNGENTA CROP PROTECTION AG, priority 2020, dated 2026)
Where “and” joins values, the source holds several entries; their conditions need not be identical. Equal values may be shown once. Read-outs that look alike come from different tables or passages of the source.

Legend:
Septoria tritici = assay: Example C2: mixtures against Septoria tritici (leaf blotch), liquid culture; type: cell-based; settings: single component; for inhibition at 0.1 ppm: 100-0 scale (100=no disease growth)
Text: (§1) Certain mixture compositions comprising a compound of formula (I) described above may show a synergistic effect. This occurs whenever the action of an active ingredient combination is greater than the sum of the actions of the individual components. The action to be expected E for a given active ingredient combination obeys the so-called COLBY formula and can be calculated as follows (COLBY, S. R. “Calculating synergistic and antagonistic responses of herbicide combination”. Weeds, Vol. 15, pages 20-22; 1967): • ppm=milligrams of active ingredient (=a.i.) per liter of spray mixture • X=% action by active ingredient A) using p ppm of active ingredient • Y=% action by active ingredient B) using q ppm of active ingredient.
(§2) According to COLBY, the expected (additive) action of active ingredients A)+B) using p+q ppm of active ingredient is:
(§3) If the action actually observed (O) is greater than the expected action (E), then the action of the combination is super-additive, i.e. there is a synergistic effect. In mathematical terms, synergism corresponds to a positive value for the difference of (O-E). In the case of purely complementary addition of activities (expected activity), said difference (O-E) is zero. A negative value of said difference (O-E) signals a loss of activity compared to the expected activity.
(§4) Mycelia fragments or conidia suspensions of a fungus prepared either freshly from liquid cultures of the fungus or from cryogenic storage, are directly mixed into nutrient broth. DMSO solutions of the test compound (max. 10 mg/mL) are diluted with 0.025% Tween20 by a factor of 50 and 10 μl of this solution is pipetted into a microtiter plate (96-well format). The nutrient broth containing the fungal spores/mycelia fragments is then added to give an end concentration of the tested compound. The test plates are incubated in the dark at 24° C. and 96% relative humidity. The inhibition of fungal growth is determined photometrically after 2 to 7 days, depending on the pathosystem, and percent antifungal activity relative to the untreated check is calculated.
(§5) Conidia of the fungus from cryogenic storage were directly mixed into nutrient broth (PDB potato dextrose broth). A DMSO solution of the test compounds was placed into a microtiter plate (96-well format) and the nutrient broth containing the fungal spores was added to it.
(§6) The following mixture compositions at the reported concentration (in ppm) in tables C2-3 to C2-5 gave the following disease control in this test Septoria tritici (leaf blotch). Fungicidal activity was evaluated on a 100-0 scale (100=no disease growth; 0=well completely covered by mycelium).

Septoria glycines = assay: Example C3: mixtures against Septoria glycines (brown spot), liquid culture; type: cell-based; settings: single component
Text: This occurs whenever the action of an active ingredient combination is greater than the sum of the actions of the individual components. The action to be expected E for a given active ingredient combination obeys the so-called COLBY formula and can be calculated as follows (COLBY, S. R. “Calculating synergistic and antagonistic responses of herbicide combination”. Weeds, Vol. 15, pages 20-22; 1967): • ppm=milligrams of active ingredient (=a.i.) per liter of spray mixture • X=% action by active ingredient A) using p ppm of active ingredient • Y=% action by active ingredient B) using q ppm of active ingredient.
as §2, §3
as §4, with “The nutrient broth containing the fungal spores/mycelia fragments is then added to give an end concentration of the tested compound.” left out
as §5, with “fungus harvested” for “fungus”, “a fresh culture grown on artificial media,” for “cryogenic storage”
Fungicidal activity was evaluated on a 100-0 scale (100=no disease growth; 0=well completely covered by mycelium).

[1] = system: Glomerella lagenarium syn. Colletotrichum lagenarium; assay: Example C4: mixtures against Glomerella lagenarium syn. Colletotrichum lagenarium (anthracnose), liquid culture; type: cell-based; settings: single component
Text: as §1, §2, §3, §4, §5
as §6, with “C4-3 and C4-4” for “C2-3 to C2-5”, “(Glomerella lagenarium syn. Colletotrichum lagenarium).” for “Septoria tritici (leaf blotch).”

[2] = system: Puccinia recondita (Brown rust); assay: Example B: comparative biological activity against Puccinia recondita (brown rust), curative, wheat leaf segments; type: in vivo; settings: 8 dpi
Description: Method; Wheat leaf segments are placed on agar in multiwell plates (24-well format). The leaf segments are inoculated with a spore suspension of the fungus and sprayed with test solutions 1 day after inoculation. After appropriate incubation the activity of a compound is assessed 8 dpi (days after inoculation) as curative fungicidal activity.
The data are presented as the percentage of disease control of each compound for the biological tests and testing rates described below in table B1.

Corynespora cassiicola = assay: Example C5: mixtures against Corynespora cassiicola (target leaf spot), liquid culture; type: cell-based; settings: single component
Text: as §1, §2, §3, §4
as §5, with “it. The test plates were incubated at 24 C and the inhibition of growth was determined photometrically after 3-4 days at 620 nm.” for “it.”
(§7) The following mixture compositions at the reported concentration (in ppm) in tables C4-3 and C4-4 gave the following disease control in this test (Corynespora cassiicola). Fungicidal activity was evaluated on a 100-0 scale (100=no disease growth; 0=well completely covered by mycelium).

Phakopsora pachyrhizi = assay: Example D: preventative activity against Phakopsora pachyrhizi on soybean (whole plants sprayed, leaf disks inoculated); type: in vivo
Text: as §1, §2, §3
Whole soybean plants are treated with the recited active ingredients 4 weeks after planting. 1 day after spraying leaf disks are cut from the first trifoliate leaf. Five repetitions at each rate are conducted. The leaf disks are inoculated with Phakopsora pachyrhizi (Asian soybean rust) one day after treatment. Evaluation of the leaf disks is conducted 11 to 14 days after inoculation and the activity is derived from the relation of the treated vs untreated, infested check. (100=no disease, no damage to the leaf, 0=high infestation, leaf damaged heavily). The rates of the active ingredients used are given in the tables as g active ingredient (a.i.)/ha.

[3] = system: Mycosphaerella arachidis syn. Cercospora arachidicola; assay: Example C1: mixtures against Mycosphaerella arachidis syn. Cercospora arachidicola (brown leaf spot), liquid culture; type: cell-based; settings: single component, 100-0 scale (100=no disease growth)
Text: as §1, §2, §3, §4, §5
as §7, with “C1-3” for “C4-3”, “C1-4” for “C4-4”, “Mycosphaerella arachidis syn. Cercospora arachidicola (Brown leaf spot of peanut).” for “(Corynespora cassiicola).”

[4] = Zymoseptoria tritici, 100-0 scale

In the case of CO/C=C(\Oc1cc(C2CCCC2)ccc1C)C(=O)OC [Compound X.02, methyl (Z)-2-(5-cyclopentyl-2-methyl-phenoxy)-3-methoxy-prop-2-enoate], the inhibition at 0.03 ppm (Septoria tritici; [4]) is reported as 0%, the inhibition at 0.03125 ppm (Septoria tritici; Zymoseptoria tritici, 0.03125 ppm, 100-0 scale) is reported as 20% and the inhibition at 0.0625 ppm (Septoria tritici; Zymoseptoria tritici, 0.0625 ppm, 100-0 scale) is reported as 90%. It also gave an inhibition at 0.1 ppm (Septoria tritici; Zymoseptoria tritici) of 70%, an inhibition at 0.03 ppm (Septoria glycines; Septoria glycines, 100-0 scale (100=no disease growth)) of 50% and an inhibition at 0.03125 ppm (Septoria glycines; Septoria glycines, 0.03125 ppm) of 70%. For the same molecule, the inhibition at 0.1 ppm (Septoria glycines; Septoria glycines, 0.1 ppm, 100-0 scale (100=no disease growth), read-out: Activity (%)) was 70%, the inhibition at 0.03 ppm ([1]; Colletotrichum orbiculare) was 0% and the inhibition at 0.1 ppm ([1]; Colletotrichum orbiculare, 0.1 ppm) was 20%. For the same molecule, the “control (%)” value ([2]; 20 ppm) was 0%, the “control (%)” value ([2]; 60 ppm) was 0% and the “control (%)” value ([2]; 200 ppm) was 100%. For the same molecule, the inhibition at 1 ppm (Corynespora cassiicola; Corynespora cassiicola, 1 ppm) was 20%, the inhibition at 2.25 g/ha (Phakopsora pachyrhizi; Phakopsora pachyrhizi, foliar, applied alone, 2.25 g/ha, read-out: Observed Activity (% of untreated)) was 13% and the inhibition at 4.5 g/ha (Phakopsora pachyrhizi; Phakopsora pachyrhizi, foliar, applied alone, 4.5 g/ha, read-out: Observed Activity (% of untreated)) was 20%. The inhibition at 1.13 g/ha (Phakopsora pachyrhizi; Phakopsora pachyrhizi, foliar, single active ingredient, soybean, preventative, 100=no disease, read-out: Observed Activity (%)) was 1%, the inhibition at 2.25 g/ha (Phakopsora pachyrhizi; Phakopsora pachyrhizi, foliar, single active ingredient, 2.25 g/ha, read-out: Observed Activity (%)) was 14% and the inhibition at 2.25 g/ha (Phakopsora pachyrhizi; Phakopsora pachyrhizi, foliar, single active ingredient, 2.25 g/ha, soybean, preventative, 100=no disease, read-out: Observed Activity (%)) was 23%. For the same molecule, the inhibition at 4.5 g/ha (Phakopsora pachyrhizi; Phakopsora pachyrhizi, foliar, single active ingredient, 4.5 g/ha, read-out: Observed Activity (%)) was 22%, the inhibition at 4.5 g/ha (Phakopsora pachyrhizi; Phakopsora pachyrhizi, foliar, single active ingredient, 4.5 g/ha, soybean, preventative, 100=no disease, read-out: Observed Activity (%)) was 33% and the inhibition at 9 g/ha (Phakopsora pachyrhizi; Phakopsora pachyrhizi, foliar, single active ingredient, 9 g/ha, read-out: Observed Activity (%)) was 38%. The inhibition at 0.03 ppm ([3]; Mycosphaerella arachidis, 0.03 ppm) was 50% and the inhibition at 0.03125 ppm ([3]; Mycosphaerella arachidis, 0.03125 ppm) was 70%.
In the case of COc1ccnc(C(=O)N[C@@H](C)C(=O)O[C@@H](C)C(c2ccc(F)cc2)c2ccc(F)cc2)c1OC(C)=O [Florylpicoxamid, reference compound], the “Activity (%)” value (Septoria tritici; 0.01 ppm, 100-0 scale) is reported as 70%, the “Activity (%)” value (Septoria tritici; 0.02 ppm, 100-0 scale) is reported as 90% and the “Activity (%)” value (Septoria glycines; 0.01 ppm) is reported as 0%. The “Activity (%)” value (Septoria glycines; 0.02 ppm) was 0%, the “Activity (%)” value ([1]; 0.1 ppm) was 20% and the “Activity (%)” value (Corynespora cassiicola; 0.02 ppm) was 0%. The “Activity (%)” value ([3]; 0.01 ppm) was 50% and the “Activity (%)” value ([3]; 0.02 ppm) was 90%.
CO/C=C(\Oc1cc(C2CCCCC2)ccc1C)C(=O)OC [Compound X.04, methyl (Z)-2-(5-cyclohexyl-2-methyl-phenoxy)-3-methoxy-prop-2-enoate] showed an inhibition at 0.00625 ppm (Septoria tritici; Zymoseptoria tritici, 0.00625 ppm, 100-0 scale) of 0%, an inhibition at 0.025 ppm (Septoria tritici; Zymoseptoria tritici, 0.025 ppm, 100-0 scale) of 70% and an inhibition at 0.03 ppm (Septoria tritici; [4]) of 50%. The inhibition at 0.1 ppm (Septoria tritici; Zymoseptoria tritici) was 70%, the inhibition at 0.00625 ppm (Septoria glycines; Septoria glycines, 0.00625 ppm) was 0% and the inhibition at 0.025 ppm (Septoria glycines; Septoria glycines, 0.025 ppm) was 90%. For the same molecule, the inhibition at 0.03 ppm (Septoria glycines; Septoria glycines) was 70%, the inhibition at 0.03 ppm ([1]; Colletotrichum orbiculare) was 0% and the “control (%)” value ([2]; 20 ppm) was 90%. For the same molecule, the “control (%)” value ([2]; 60 ppm) was 100%, the “control (%)” value ([2]; 200 ppm) was 100% and the inhibition at 0.2 ppm (Corynespora cassiicola; Corynespora cassiicola, 0.2 ppm) was 20%. For the same molecule, the inhibition at 1.13 g/ha (Phakopsora pachyrhizi; Phakopsora pachyrhizi, foliar, applied alone, read-out: Observed Activity (% of untreated)) was 20%, the inhibition at 18 g/ha (Phakopsora pachyrhizi; Phakopsora pachyrhizi, foliar, applied alone, 18 g/ha, read-out: Observed Activity (% of untreated)) was 74% and the “Observed Activity (% of untreated)” value (Phakopsora pachyrhizi; applied alone, 2.25 g/ha) was 22% and 35% and 17%. The “Observed Activity (% of untreated)” value (Phakopsora pachyrhizi; applied alone, 4.5 g/ha) was 67% and 34% and 49% and 53%, the “Observed Activity (% of untreated)” value (Phakopsora pachyrhizi; applied alone, 9 g/ha) was 81% and 59% and the inhibition at 0.00625 ppm ([3]; Mycosphaerella arachidis, 0.00625 ppm) was 0%.
